# Numbering of substitutions follows the chain as printed.
# Key:
# [1] = target: T1, GlyT2 F515W mutant (Homo sapiens, UniProt Q9Y345, F515W); assay: Inhibitor concentration–responses on glycine transport currents, two-electrode voltage clamp; format: cell-based; parameters: expressed in transfected cells; host or cells: Xenopus laevis oocytes injected with mutant RNA (pOTV vector); conditions: for IC50: F515W GlyT2 in Xenopus laevis oocytes
# T1 sequence (Q9Y345 1-797 F515W): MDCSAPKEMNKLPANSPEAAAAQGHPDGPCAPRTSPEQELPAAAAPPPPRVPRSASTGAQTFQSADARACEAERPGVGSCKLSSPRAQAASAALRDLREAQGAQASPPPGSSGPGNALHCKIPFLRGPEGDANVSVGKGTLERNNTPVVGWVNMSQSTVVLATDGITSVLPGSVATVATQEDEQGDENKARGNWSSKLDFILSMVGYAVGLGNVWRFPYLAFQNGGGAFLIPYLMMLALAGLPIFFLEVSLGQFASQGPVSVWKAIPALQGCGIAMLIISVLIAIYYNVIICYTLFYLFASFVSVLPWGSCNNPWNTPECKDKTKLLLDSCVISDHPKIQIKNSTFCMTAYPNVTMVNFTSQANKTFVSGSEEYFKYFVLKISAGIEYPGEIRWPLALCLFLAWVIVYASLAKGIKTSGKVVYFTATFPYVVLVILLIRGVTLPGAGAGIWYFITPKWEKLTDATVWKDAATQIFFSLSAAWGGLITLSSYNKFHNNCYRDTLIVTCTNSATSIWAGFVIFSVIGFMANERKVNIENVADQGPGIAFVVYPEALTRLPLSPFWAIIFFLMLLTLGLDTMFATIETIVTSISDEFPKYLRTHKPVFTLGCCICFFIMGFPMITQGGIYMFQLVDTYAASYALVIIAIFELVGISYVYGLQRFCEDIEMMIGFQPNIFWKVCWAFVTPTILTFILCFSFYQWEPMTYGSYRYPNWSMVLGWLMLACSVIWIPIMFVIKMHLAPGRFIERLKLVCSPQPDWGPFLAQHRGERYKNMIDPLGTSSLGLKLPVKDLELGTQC
# Method: (§1) Because of the slowly reversible nature of the compounds tested, inhibitor concentration–responses were performed cumulatively. An EC50 concentration of glycine was applied until a stable transport current was reached. EC50 concentrations of glycine were used to produce reliable currents for each transporter, and as the inhibitors are non-competitive, application of varying glycine concentrations is unlikely to affect their activity. Increasing concentrations of inhibitors were co-applied with glycine with each concentration producing a distinct plateau before the subsequent concentration was applied. Inhibitor concentration–responses were limited to a maximum concentration of 3 µM to mitigate the risk of changes to the free drug concentration because of micelle formation. Currents after the plateau of each inhibitor concentration were normalized to the current produced by application of glycine alone and fit using the method of least squares: Y=Bottom+(Top−Bottom)/(1+10^[X−LogIC50]), where X is log [inhibitor], Y is current normalized to glycine in the absence of inhibitor, and Top and Bottom are the maximal and minimal plateaus, respectively. The method of least squares was constrained to have the bottom value >0 and the hill slope as −1, enabling the calculation of IC50 values and the extent of inhibition produced by the maximal concentration applied.
# (§2) IC50 values are presented as the mean and 95% confidence interval, whereas inhibition values are presented as the mean ± SEM. Data sets are n ≥ 5 from two batches of oocytes.
# [2] = target: T2, GlyT2 Y430F mutant (Homo sapiens, UniProt Q9Y345, Y430F); assay: as above; format: cell-based; parameters: expressed in transfected cells; host or cells: Xenopus laevis oocytes injected with mutant RNA (pOTV vector); conditions: for IC50: Y430F GlyT2 in Xenopus laevis oocytes
# T2 sequence (Q9Y345 1-797 Y430F): T1 sequence (Q9Y345 1-797 F515W) with Y430F, W515F
# Method: as §1, §2
IC50 [1] [µM],Inhibition at 3 μM ([1]; F515W) [%],IC50 [2] [µM],Inhibition at 3 μM ([2]; Y430F) [%],"Inhibition at 1 µM (column head 3 μM, footnote b) ([1]; F515W, 1 µM)","Inhibition at 1 µM (column head 3 μM, footnote b) ([2]; Y430F, 1 µM)",Structure (SMILES)
0.128,82.0 ± 3.9,0.125,84.5 ± 3.6,,,"CCCCCCCC/C=C\CCCCCCCC(=O)N[C@@H](Cc1c[nH]c2ccccc12)C(=O)O [Oleoyl-L-Tryptophan, oleoyl-L-tryptophan]"
,,0.19,,57.6 ± 2.3^b %,71.0 ± 3.3^*b %,"CCCCCCCC/C=C\CCCCCCCC(=O)O[C@H](CC(=O)[O-])C[N+](C)(C)C [Oleoyl-L-Carnitine, oleoyl-L-carnitine]"
0.4,86.7 ± 1.7,0.203,76.7 ± 2.8,,,"CCCCCCCC/C=C\CCCCCCCC(=O)N[C@@H](CC(C)C)C(=O)O [Oleoyl-L-Leucine, oleoyl-L-leucine]"
0.689,85.3 ± 6.4,0.123,92.9 ± 1.7,,,"CCCCCCCC/C=C\CCCCCCCC(=O)N[C@@H](CCCCN)C(=O)O [Oleoyl-L-Lysine, oleoyl-L-lysine]"

# Source: publication PMC9873984, “Membrane cholesterol regulates inhibition and substrate transport by the glycine transporter, GlyT2” (Life Science Alliance, 2023)
